Measured values reported in ChEMBL document CHEMBL4507284, “Data for DCP probe BI-1230” (2021).

Tests used:
[1] = biological target: Mitogen-activated protein kinase 12 (Homo sapiens) (UniProt P53778); conditions: Compound concentration 1000.0 nM
[2] = biological target: Cyclin-dependent kinase-like 3 (Homo sapiens) (UniProt Q8IVW4); conditions: Compound concentration 1000.0 nM
[3] = biological target: Fibroblast growth factor receptor 3 (Homo sapiens) (UniProt P22607); conditions: Compound concentration 1000.0 nM
[4] = biological target: Hormonally up-regulated neu tumor-associated kinase (Homo sapiens) (UniProt P57058); conditions: Compound concentration 1000.0 nM
[5] = biological target: Cyclin-dependent kinase 14 (Homo sapiens) (UniProt O94921); conditions: Compound concentration 1000.0 nM
[6] = biological target: Protein-tyrosine kinase 6 (Homo sapiens) (UniProt Q13882); conditions: Compound concentration 1000.0 nM
[7] = biological target: Vascular endothelial growth factor receptor 1 (Homo sapiens) (UniProt P17948); conditions: Compound concentration 1000.0 nM
[8] = biological target: Serine/threonine-protein kinase 36 (Homo sapiens) (UniProt Q9NRP7); conditions: Compound concentration 1000.0 nM
[9] = biological target: Cyclin-dependent kinase 3 (Homo sapiens) (UniProt Q00526); conditions: Compound concentration 1000.0 nM
[10] = biological target: 5-hydroxytryptamine receptor 1B (Homo sapiens) (UniProt P28222); conditions: Compound concentration 10.0 uM
[11] = biological target: Casein kinase I isoform delta (Homo sapiens) (UniProt P48730); conditions: Compound concentration 1000.0 nM
[12] = biological target: Atypical kinase COQ8B, mitochondrial (Homo sapiens) (UniProt Q96D53); conditions: Compound concentration 1000.0 nM
[13] = test system: Proto-oncogene tyrosine-protein kinase receptor Ret (Homo sapiens), P07949 [M918T]; conditions: Compound concentration 1000.0 nM
[14] = test system: Serine/threonine-protein kinase B-raf (Homo sapiens), P15056 [V600E]; conditions: Compound concentration 1000.0 nM
[15] = test system: Phosphatidylinositol 4,5-bisphosphate 3-kinase catalytic subunit alpha isoform (Homo sapiens), P42336 [E542K]; conditions: Compound concentration 1000.0 nM
[16] = biological target: Serine/threonine-protein kinase D2 (Homo sapiens) (UniProt Q9BZL6); conditions: Compound concentration 1000.0 nM
[17] = test system: Receptor-type tyrosine-protein kinase FLT3 (Homo sapiens), P36888 [UNDEFINED MUTATION]; conditions: Compound concentration 1000.0 nM
[18] = biological target: High affinity nerve growth factor receptor (Homo sapiens) (UniProt P04629); conditions: Compound concentration 1000.0 nM
[19] = biological target: Delta-type opioid receptor (Homo sapiens) (UniProt P41143); conditions: Compound concentration 10.0 uM
[20] = biological target: Mitogen-activated protein kinase kinase kinase 9 (Homo sapiens) (UniProt P80192); conditions: Compound concentration 1000.0 nM
[21] = biological target: Bone morphogenetic protein receptor type-2 (Homo sapiens) (UniProt Q13873); conditions: Compound concentration 1000.0 nM
[22] = biological target: Receptor-interacting serine/threonine-protein kinase 4 (Homo sapiens) (UniProt P57078); conditions: Compound concentration 1000.0 nM
[23] = biological target: Serine/threonine-protein kinase BRSK1 (Homo sapiens) (UniProt Q8TDC3); conditions: Compound concentration 1000.0 nM
[24] = biological target: Activated CDC42 kinase 1 (Homo sapiens) (UniProt Q07912); conditions: Compound concentration 1000.0 nM
[25] = biological target: Dual serine/threonine and tyrosine protein kinase (Homo sapiens) (UniProt Q6XUX3); conditions: Compound concentration 1000.0 nM
[26] = biological target: Muscarinic acetylcholine receptor M3 (Homo sapiens) (UniProt P20309); conditions: Compound concentration 10.0 uM
[27] = biological target: Tyrosine-protein kinase Blk (Homo sapiens) (UniProt P51451); conditions: Compound concentration 1000.0 nM
[28] = biological target: Fibroblast growth factor receptor 4 (Homo sapiens) (UniProt P22455); conditions: Compound concentration 1000.0 nM
[29] = biological target: Maternal embryonic leucine zipper kinase (Homo sapiens) (UniProt Q14680); conditions: Compound concentration 1000.0 nM
[30] = biological target: Mitogen-activated protein kinase kinase kinase 10 (Homo sapiens) (UniProt Q02779); conditions: Compound concentration 1000.0 nM
[31] = biological target: Mast/stem cell growth factor receptor Kit (Homo sapiens) (UniProt P10721); conditions: Compound concentration 1000.0 nM
[32] = biological target: Cyclin-dependent kinase 11A (Homo sapiens) (UniProt Q9UQ88); conditions: Compound concentration 1000.0 nM
[33] = biological target: Ribosomal protein S6 kinase alpha-5 (Homo sapiens) (UniProt O75582); conditions: Compound concentration 1000.0 nM
[34] = biological target: Ribosomal protein S6 kinase alpha-2 (Homo sapiens) (UniProt Q15349); conditions: Compound concentration 1000.0 nM
[35] = biological target: 5-hydroxytryptamine receptor 2B (Homo sapiens) (UniProt P41595); conditions: Compound concentration 10.0 uM
[36] = biological target: Myosin-IIIa (Homo sapiens) (UniProt Q8NEV4); conditions: Compound concentration 1000.0 nM
[37] = biological target: Phosphatidylinositol 4-phosphate 3-kinase C2 domain-containing subunit beta (Homo sapiens) (UniProt O00750); conditions: Compound concentration 1000.0 nM
[38] = biological target: Serine/threonine-protein kinase MRCK beta (Homo sapiens) (UniProt Q9Y5S2); conditions: Compound concentration 1000.0 nM
[39] = test system: Receptor-type tyrosine-protein kinase FLT3 (Homo sapiens), P36888 [D835V]; conditions: Compound concentration 1000.0 nM
[40] = test system: Epidermal growth factor receptor (Homo sapiens), P00533 [L861Q]; conditions: Compound concentration 1000.0 nM
[41] = biological target: Mitogen-activated protein kinase 7 (Homo sapiens) (UniProt Q13164); conditions: Compound concentration 1000.0 nM
[42] = biological target: Serine/threonine-protein kinase PLK2 (Homo sapiens) (UniProt Q9NYY3); conditions: Compound concentration 1000.0 nM
[43] = biological target: Rhodopsin kinase GRK1 (Homo sapiens) (UniProt Q15835); conditions: Compound concentration 1000.0 nM
[44] = biological target: Mitogen-activated protein kinase 3 (Homo sapiens) (UniProt P27361); conditions: Compound concentration 1000.0 nM
[45] = biological target: Tyrosine-protein kinase Fer (Homo sapiens) (UniProt P16591); conditions: Compound concentration 1000.0 nM

Chain of Serine/threonine-protein kinase BRSK1 (Homo sapiens) (Q8TDC3 whole entry): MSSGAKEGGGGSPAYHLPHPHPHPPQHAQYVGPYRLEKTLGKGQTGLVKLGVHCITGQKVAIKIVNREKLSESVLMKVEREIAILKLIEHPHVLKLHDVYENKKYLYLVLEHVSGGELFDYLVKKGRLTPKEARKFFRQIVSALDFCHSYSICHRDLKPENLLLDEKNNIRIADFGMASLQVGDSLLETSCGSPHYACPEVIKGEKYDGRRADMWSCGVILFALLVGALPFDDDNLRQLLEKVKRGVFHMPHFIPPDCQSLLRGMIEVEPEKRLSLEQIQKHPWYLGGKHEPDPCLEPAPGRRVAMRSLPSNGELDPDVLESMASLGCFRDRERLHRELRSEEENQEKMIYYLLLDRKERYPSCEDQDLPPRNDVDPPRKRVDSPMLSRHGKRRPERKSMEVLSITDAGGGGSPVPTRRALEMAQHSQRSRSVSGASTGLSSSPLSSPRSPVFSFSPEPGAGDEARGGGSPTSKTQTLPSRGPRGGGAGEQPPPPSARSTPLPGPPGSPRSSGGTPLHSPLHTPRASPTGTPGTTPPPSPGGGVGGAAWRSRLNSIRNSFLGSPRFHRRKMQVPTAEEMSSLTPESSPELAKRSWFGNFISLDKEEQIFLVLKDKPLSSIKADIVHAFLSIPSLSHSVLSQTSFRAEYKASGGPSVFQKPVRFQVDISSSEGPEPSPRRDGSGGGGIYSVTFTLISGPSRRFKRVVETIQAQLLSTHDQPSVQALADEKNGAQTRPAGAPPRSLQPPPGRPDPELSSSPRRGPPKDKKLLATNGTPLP
Chain of Vascular endothelial growth factor receptor 1 (Homo sapiens) (P17948 whole entry): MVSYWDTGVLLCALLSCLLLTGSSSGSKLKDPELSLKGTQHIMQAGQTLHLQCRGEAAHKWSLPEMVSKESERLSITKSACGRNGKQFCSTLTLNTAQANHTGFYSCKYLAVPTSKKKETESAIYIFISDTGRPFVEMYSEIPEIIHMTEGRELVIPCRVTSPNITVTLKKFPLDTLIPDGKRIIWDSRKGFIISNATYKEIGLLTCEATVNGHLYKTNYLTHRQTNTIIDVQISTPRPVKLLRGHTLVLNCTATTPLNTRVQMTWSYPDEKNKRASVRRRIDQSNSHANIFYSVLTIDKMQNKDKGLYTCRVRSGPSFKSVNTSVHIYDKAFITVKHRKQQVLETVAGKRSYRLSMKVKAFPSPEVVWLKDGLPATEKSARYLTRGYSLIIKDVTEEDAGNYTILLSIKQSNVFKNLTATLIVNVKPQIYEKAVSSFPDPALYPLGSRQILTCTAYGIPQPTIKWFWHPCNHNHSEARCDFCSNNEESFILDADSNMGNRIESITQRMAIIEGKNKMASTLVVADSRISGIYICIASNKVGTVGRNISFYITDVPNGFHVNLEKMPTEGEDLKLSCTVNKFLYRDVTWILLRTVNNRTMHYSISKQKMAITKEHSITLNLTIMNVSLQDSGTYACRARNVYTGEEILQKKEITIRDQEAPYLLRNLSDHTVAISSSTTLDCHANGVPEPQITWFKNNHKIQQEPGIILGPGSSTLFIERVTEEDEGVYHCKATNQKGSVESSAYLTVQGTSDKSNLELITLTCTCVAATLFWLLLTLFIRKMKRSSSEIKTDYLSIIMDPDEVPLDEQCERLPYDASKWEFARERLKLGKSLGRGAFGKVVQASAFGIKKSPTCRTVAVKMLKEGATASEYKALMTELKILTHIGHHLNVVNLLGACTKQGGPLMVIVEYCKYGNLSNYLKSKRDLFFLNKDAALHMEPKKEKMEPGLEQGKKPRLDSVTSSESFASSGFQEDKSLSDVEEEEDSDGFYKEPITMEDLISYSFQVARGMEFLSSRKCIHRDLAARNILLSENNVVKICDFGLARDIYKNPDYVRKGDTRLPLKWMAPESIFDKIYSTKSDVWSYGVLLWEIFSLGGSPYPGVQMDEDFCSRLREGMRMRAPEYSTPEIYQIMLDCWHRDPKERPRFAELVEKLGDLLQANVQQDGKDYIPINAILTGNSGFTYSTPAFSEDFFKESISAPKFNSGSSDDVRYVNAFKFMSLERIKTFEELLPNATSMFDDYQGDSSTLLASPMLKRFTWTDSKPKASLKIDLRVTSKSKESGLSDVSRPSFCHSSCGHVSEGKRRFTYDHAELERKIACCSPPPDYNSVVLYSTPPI
Chain of Mitogen-activated protein kinase 12 (Homo sapiens) (P53778 whole entry): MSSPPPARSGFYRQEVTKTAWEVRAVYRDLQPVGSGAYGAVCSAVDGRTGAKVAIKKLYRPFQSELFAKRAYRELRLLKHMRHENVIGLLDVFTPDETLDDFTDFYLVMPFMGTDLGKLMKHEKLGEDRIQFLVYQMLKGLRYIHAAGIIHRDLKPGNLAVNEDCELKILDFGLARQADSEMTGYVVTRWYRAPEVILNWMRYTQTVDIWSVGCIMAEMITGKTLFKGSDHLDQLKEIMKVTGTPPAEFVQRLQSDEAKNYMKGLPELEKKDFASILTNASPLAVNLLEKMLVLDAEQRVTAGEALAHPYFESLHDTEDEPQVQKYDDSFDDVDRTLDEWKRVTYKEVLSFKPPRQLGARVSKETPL
Chain of Activated CDC42 kinase 1 (Homo sapiens) (Q07912 whole entry, looked up): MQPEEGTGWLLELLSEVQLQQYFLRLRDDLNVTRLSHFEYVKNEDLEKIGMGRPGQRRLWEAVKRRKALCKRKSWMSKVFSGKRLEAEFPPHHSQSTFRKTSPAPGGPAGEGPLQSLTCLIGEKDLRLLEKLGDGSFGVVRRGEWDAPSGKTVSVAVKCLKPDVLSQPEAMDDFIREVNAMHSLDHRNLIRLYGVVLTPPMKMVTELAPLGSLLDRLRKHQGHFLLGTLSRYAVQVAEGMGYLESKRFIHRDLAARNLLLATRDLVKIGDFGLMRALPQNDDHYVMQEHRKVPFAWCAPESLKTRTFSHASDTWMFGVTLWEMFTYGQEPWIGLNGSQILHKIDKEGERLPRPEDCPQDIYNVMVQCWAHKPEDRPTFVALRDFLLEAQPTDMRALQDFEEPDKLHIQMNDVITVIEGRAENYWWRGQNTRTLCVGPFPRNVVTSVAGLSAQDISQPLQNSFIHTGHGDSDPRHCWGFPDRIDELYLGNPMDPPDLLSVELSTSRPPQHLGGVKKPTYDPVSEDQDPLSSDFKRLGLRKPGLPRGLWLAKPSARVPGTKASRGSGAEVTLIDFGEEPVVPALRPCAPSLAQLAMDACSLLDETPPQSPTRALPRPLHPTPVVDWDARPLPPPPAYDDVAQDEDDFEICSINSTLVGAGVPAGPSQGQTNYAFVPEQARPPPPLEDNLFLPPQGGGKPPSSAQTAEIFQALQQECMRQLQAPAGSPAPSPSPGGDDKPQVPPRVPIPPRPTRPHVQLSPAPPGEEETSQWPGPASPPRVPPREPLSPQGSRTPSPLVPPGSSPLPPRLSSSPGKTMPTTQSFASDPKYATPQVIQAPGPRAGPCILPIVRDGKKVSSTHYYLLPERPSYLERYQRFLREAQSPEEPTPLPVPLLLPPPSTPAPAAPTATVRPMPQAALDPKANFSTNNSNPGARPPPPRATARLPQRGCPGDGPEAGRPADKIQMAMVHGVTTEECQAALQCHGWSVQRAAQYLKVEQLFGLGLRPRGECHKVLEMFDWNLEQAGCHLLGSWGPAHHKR
Chain of Serine/threonine-protein kinase D2 (Homo sapiens) (Q9BZL6 whole entry): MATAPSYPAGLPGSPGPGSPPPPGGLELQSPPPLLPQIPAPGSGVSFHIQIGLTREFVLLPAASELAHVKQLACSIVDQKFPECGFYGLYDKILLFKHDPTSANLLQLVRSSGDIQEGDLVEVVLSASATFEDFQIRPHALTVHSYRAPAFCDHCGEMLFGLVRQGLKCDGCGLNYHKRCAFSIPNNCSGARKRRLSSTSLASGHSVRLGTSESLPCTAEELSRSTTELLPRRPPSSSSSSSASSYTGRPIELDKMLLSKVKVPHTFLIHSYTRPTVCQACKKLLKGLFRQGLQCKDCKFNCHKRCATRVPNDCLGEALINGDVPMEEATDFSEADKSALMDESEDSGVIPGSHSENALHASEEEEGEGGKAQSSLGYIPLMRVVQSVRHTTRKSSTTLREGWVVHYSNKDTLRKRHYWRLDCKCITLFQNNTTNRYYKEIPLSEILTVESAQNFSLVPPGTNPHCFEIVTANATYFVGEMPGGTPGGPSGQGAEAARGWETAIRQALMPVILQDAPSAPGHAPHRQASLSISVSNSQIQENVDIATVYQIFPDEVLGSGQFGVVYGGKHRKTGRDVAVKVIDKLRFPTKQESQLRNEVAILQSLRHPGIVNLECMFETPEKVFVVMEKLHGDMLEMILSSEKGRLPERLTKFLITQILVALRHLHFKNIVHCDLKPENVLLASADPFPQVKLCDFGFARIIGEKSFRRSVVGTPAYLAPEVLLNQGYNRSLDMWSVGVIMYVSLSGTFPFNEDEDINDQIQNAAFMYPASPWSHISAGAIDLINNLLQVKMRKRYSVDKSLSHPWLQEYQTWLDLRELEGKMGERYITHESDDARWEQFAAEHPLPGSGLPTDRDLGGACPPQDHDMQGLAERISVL
Chain of 5-hydroxytryptamine receptor 1B (Homo sapiens) (P28222 whole entry, canonical isoform): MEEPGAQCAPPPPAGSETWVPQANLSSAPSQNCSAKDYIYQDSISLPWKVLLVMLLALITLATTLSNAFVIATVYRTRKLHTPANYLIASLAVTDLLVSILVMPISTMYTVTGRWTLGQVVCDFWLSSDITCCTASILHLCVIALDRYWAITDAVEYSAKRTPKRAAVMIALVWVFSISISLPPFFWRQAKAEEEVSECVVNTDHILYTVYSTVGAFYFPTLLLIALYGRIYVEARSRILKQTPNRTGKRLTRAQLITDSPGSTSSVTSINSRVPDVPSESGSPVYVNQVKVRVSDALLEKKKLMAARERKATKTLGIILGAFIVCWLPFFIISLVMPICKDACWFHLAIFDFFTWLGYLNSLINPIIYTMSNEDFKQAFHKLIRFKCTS

COc1ccc2c(O[C@@H]3C[C@H]4C(=O)N[C@]5(C(=O)O)CC5/C=C\CCCCC[C@H](NC(=O)OC5CCCC5)C(=O)N4C3)cc(-c3csc(NC(=O)C(C)C)n3)nc2c1C (stereo not given in full) [BI 1230]
active: residual activity [29] 44%
inactive: residual activity [1] 91% | residual activity [2] 92% | residual activity [3] 100% | residual activity [4] 100% | residual activity [5] 88% | residual activity [6] 97% | residual activity [7] 95% | residual activity [8] 93% | residual activity [9] 100% | inhibition [10] 7.71% | residual activity [11] 100% | residual activity [12] 100% | residual activity [13] 97% | residual activity [14] 77% | residual activity [15] 71% | residual activity [16] 95% | residual activity [17] 97% | residual activity [18] 82% | inhibition [19] 45.8% | residual activity [20] 100% | residual activity [21] 84% | residual activity [22] 65% | residual activity [23] 85% | residual activity [24] 100% | residual activity [25] 68% | inhibition [26] 0.21% | residual activity [27] 97% | residual activity [28] 100% | residual activity [30] 93% | residual activity [31] 100% | residual activity [32] 99% | residual activity [33] 100% | residual activity [34] 100% | inhibition [35] 0.15% | residual activity [36] 100% | residual activity [37] 82% | residual activity [38] 96% | residual activity [39] 79% | residual activity [40] 100% | residual activity [41] 100% | residual activity [42] 69% | residual activity [43] 100% | residual activity [44] 94% | residual activity [45] 100%

O=C(N[C@H]1CCCCC/C=C\C2C[C@@]2(C(=O)O)NC(=O)[C@@H]2C[C@@H](Oc3ccncc3)CN2C1=O)OC1CCCC1 (stereo not given in full) [BI 1675]
inactive: residual activity [1] 100% | residual activity [2] 99% | residual activity [3] 88% | residual activity [4] 100% | residual activity [5] 91% | residual activity [6] 100% | residual activity [7] 100% | residual activity [8] 85% | residual activity [9] 100% | inhibition [10] -3.04% | residual activity [11] 81% | residual activity [12] 100% | residual activity [13] 96% | residual activity [14] 93% | residual activity [15] 96% | residual activity [16] 100% | residual activity [17] 100% | residual activity [18] 100% | inhibition [19] -2.02% | residual activity [20] 97% | residual activity [21] 100% | residual activity [22] 94% | residual activity [23] 80% | residual activity [24] 100% | residual activity [25] 100% | inhibition [26] -5.57% | residual activity [27] 63% | residual activity [28] 100% | residual activity [29] 84% | residual activity [30] 100% | residual activity [31] 91% | residual activity [32] 88% | residual activity [33] 78% | residual activity [34] 75% | inhibition [35] 1.85% | residual activity [36] 94% | residual activity [37] 84% | residual activity [38] 100% | residual activity [39] 92% | residual activity [40] 100% | residual activity [41] 90% | residual activity [42] 93% | residual activity [43] 100% | residual activity [44] 69% | residual activity [45] 100%
